{
  "source": "patent US11945794B2",
  "about": "“Nuclear transport modulators and uses thereof” (Karyopharm Therapeutics Inc., priority 2013, dated 2024)",
  "assay_in_all_cases": "MTT assay panel",
  "assay_type_in_all_cases": "cell-based",
  "key": {"[1]": {"tested_on": "AML-193", "conditions": "AML-193 cells, 72 hours", "experimental": "(§1) Compound 124 was further tested against a panel of selected solid and hematological cancer cell lines and selected normal cell lines in an MTT assay. Briefly, the various cell lines above were plated at different densities on day 1. […] Cell Titer AQueous One was added to each well, and the plates were read in a plate reader at OD 495."}, "[2]": {"tested_on": "AU-565", "conditions": "Homo sapiens, AU565; AU-565 cells, 72 hours", "experimental": "as §1"}, "[3]": {"tested_on": "BL-2", "conditions": "BL2; BL-2 cells, 72 hours", "experimental": "as §1"}, "[4]": {"tested_on": "BL-40", "conditions": "BL-40 cells, 72 hours", "experimental": "as §1"}, "[5]": {"tested_on": "Calu-3", "conditions": "Homo sapiens; Calu-3 cells, 72 hours", "experimental": "as §1"}, "[6]": {"tested_on": "Calu-6", "conditions": "Homo sapiens; Calu-6 cells, 72 hours", "experimental": "as §1"}, "[7]": {"tested_on": "Colo-205", "conditions": "Homo sapiens; Colo-205 cells, 72 hours", "experimental": "as §1"}, "[8]": {"tested_on": "DLD-1", "conditions": "Homo sapiens; DLD-1 cells, 72 hours", "experimental": "as §1"}, "[9]": {"tested_on": "Daudi", "conditions": "Homo sapiens; Daudi cells, 72 hours", "experimental": "as §1"}, "[10]": {"tested_on": "Farage", "conditions": "Farage cells, 72 hours", "experimental": "as §1"}, "[11]": {"tested_on": "HCC-2935", "conditions": "Homo sapiens, HCC2935; HCC-2935 cells, 72 hours", "experimental": "as §1"}, "[12]": {"tested_on": "HCC-827", "conditions": "Homo sapiens, HCC827; HCC-827 cells, 72 hours", "experimental": "as §1"}, "[13]": {"tested_on": "HCT116.1", "conditions": "HCT116.1 cells, 72 hours", "experimental": "as §1"}, "[14]": {"tested_on": "HEL.92.1.7", "conditions": "Homo sapiens; HEL.92.1.7 cells, 72 hours", "experimental": "as §1"}, "[15]": {"tested_on": "HS-Sultan", "conditions": "HS-Sultan cells, 72 hours", "experimental": "as §1"}, "[16]": {"tested_on": "HT1080", "conditions": "Homo sapiens, HT-1080; HT1080 cells, 72 hours", "experimental": "as §1"}, "[17]": {"tested_on": "L3.6pl", "conditions": "Homo sapiens; L3.6pl cells, 72 hours", "experimental": "as §1"}, "[18]": {"tested_on": "MINO", "conditions": "Homo sapiens; MINO cells, 72 hours", "experimental": "as §1"}, "[19]": {"tested_on": "MO7e", "conditions": "MO7e cells, 72 hours", "experimental": "as §1"}, "[20]": {"tested_on": "MS751", "conditions": "MS751 cells, 72 hours", "experimental": "as §1"}, "[21]": {"tested_on": "MSTO-211H", "conditions": "Homo sapiens; MSTO-211H cells, 72 hours", "experimental": "as §1"}, "[22]": {"tested_on": "MV-4-11", "conditions": "Homo sapiens, MV4-11; MV-4-11 cells, 72 hours", "experimental": "as §1"}, "[23]": {"tested_on": "NCI-H2170", "conditions": "Homo sapiens; NCI-H2170 cells, 72 hours", "experimental": "as §1"}, "[24]": {"tested_on": "NCI-H28", "conditions": "Homo sapiens; NCI-H28 cells, 72 hours", "experimental": "as §1"}, "[25]": {"tested_on": "NCI-H520", "conditions": "Homo sapiens; NCI-H520 cells, 72 hours", "experimental": "as §1"}, "[26]": {"tested_on": "NCI-H69", "conditions": "Homo sapiens; NCI-H69 cells, 72 hours", "experimental": "as §1"}, "[27]": {"tested_on": "NCI-H747", "conditions": "Homo sapiens; NCI-H747 cells, 72 hours", "experimental": "as §1"}, "[28]": {"tested_on": "NCI-H889", "conditions": "Homo sapiens; NCI-H889 cells, 72 hours", "experimental": "as §1"}, "[29]": {"tested_on": "PANC-10.05", "conditions": "Homo sapiens, Panc1005; PANC-10.05 cells, 72 hours", "experimental": "as §1"}, "[30]": {"tested_on": "PATU-8902", "conditions": "PATU-8902 cells, 72 hours", "experimental": "as §1"}, "[31]": {"tested_on": "PL-45", "conditions": "PL45; PL-45 cells, 72 hours", "experimental": "as §1"}, "[32]": {"tested_on": "SHP-77", "conditions": "Homo sapiens, SHP77; SHP-77 cells, 72 hours", "experimental": "as §1"}, "[33]": {"tested_on": "SNU-398", "conditions": "Homo sapiens; SNU-398 cells, 72 hours", "experimental": "as §1"}, "[34]": {"tested_on": "SW-1116", "conditions": "Homo sapiens; SW-1116 cells, 72 hours", "experimental": "as §1"}, "[35]": {"tested_on": "SW-1417", "conditions": "Homo sapiens, SW1417; SW-1417 cells, 72 hours", "experimental": "as §1"}, "[36]": {"tested_on": "SW-900", "conditions": "Homo sapiens, SW900; SW-900 cells, 72 hours", "experimental": "as §1"}, "[37]": {"tested_on": "SW-948", "conditions": "Homo sapiens, SW948; SW-948 cells, 72 hours", "experimental": "as §1"}, "[38]": {"tested_on": "Tera-1", "conditions": "Tera-1 cells, 72 hours", "experimental": "as §1"}, "[39]": {"tested_on": "U-937", "conditions": "Homo sapiens; U-937 cells, 72 hours", "experimental": "as §1"}, "[40]": {"tested_on": "U118MG", "conditions": "Homo sapiens, U-118-MG; U118MG cells, 72 hours", "experimental": "as §1"}},
  "data": [
    {"compound": "NC(=O)/C(=C/n1cnc(-c2cc(C(F)(F)F)cc(C(F)(F)F)c2)n1)c1cncnc1", "note": "[Compound 124, (E)-3-(3-(3,5-bis(trifluoromethyl)phenyl)-1H-1,2,4-triazol-1-yl)-2-(pyrimidin-5-yl)acrylamide]", "values": [
      {"measurement": "IC50", "setting": "[1]", "result": 1930, "unit": "nM"},
      {"measurement": "IC50", "setting": "[2]", "result": 490, "unit": "nM"},
      {"measurement": "IC50", "setting": "[3]", "result": 30, "unit": "nM"},
      {"measurement": "IC50", "setting": "[4]", "result": 400, "unit": "nM"},
      {"measurement": "IC50", "setting": "[5]", "result": 1380, "unit": "nM"},
      {"measurement": "IC50", "setting": "[6]", "result": 1270, "unit": "nM"},
      {"measurement": "IC50", "setting": "[7]", "result": 120, "unit": "nM"},
      {"measurement": "IC50", "setting": "[8]", "result": 800, "unit": "nM"},
      {"measurement": "IC50", "setting": "[9]", "result": 8, "unit": "nM"},
      {"measurement": "IC50", "setting": "[10]", "result": 460, "unit": "nM"},
      {"measurement": "IC50", "setting": "[11]", "result": 6700, "unit": "nM"},
      {"measurement": "IC50", "setting": "[12]", "result": 460, "unit": "nM"},
      {"measurement": "IC50", "setting": "[13]", "result": 200, "unit": "nM"},
      {"measurement": "IC50", "setting": "[14]", "result": 230, "unit": "nM"},
      {"measurement": "IC50", "setting": "[15]", "result": 60, "unit": "nM"},
      {"measurement": "IC50", "setting": "[16]", "result": 310, "unit": "nM"},
      {"measurement": "IC50", "setting": "[17]", "result": 470, "unit": "nM"},
      {"measurement": "IC50", "setting": "[18]", "result": 20, "unit": "nM"},
      {"measurement": "IC50", "setting": "[19]", "result": 20, "unit": "nM"},
      {"measurement": "IC50", "setting": "[20]", "result": 400, "unit": "nM"},
      {"measurement": "IC50", "setting": "[21]", "result": 70, "unit": "nM"},
      {"measurement": "IC50", "setting": "[22]", "result": 100, "unit": "nM"},
      {"measurement": "IC50", "setting": "[23]", "result": 2140, "unit": "nM"},
      {"measurement": "IC50", "setting": "[24]", "result": 340, "unit": "nM"},
      {"measurement": "IC50", "setting": "[25]", "result": 1300, "unit": "nM"},
      {"measurement": "IC50", "setting": "[26]", "result": 1640, "unit": "nM"},
      {"measurement": "IC50", "setting": "[27]", "result": 70, "unit": "nM"},
      {"measurement": "IC50", "setting": "[28]", "result": 1020, "unit": "nM"},
      {"measurement": "IC50", "setting": "[29]", "result": 990, "unit": "nM"},
      {"measurement": "IC50", "setting": "[30]", "result": 410, "unit": "nM"},
      {"measurement": "IC50", "setting": "[31]", "result": 6940, "unit": "nM"},
      {"measurement": "IC50", "setting": "[32]", "result": 410, "unit": "nM"},
      {"measurement": "IC50", "setting": "[33]", "result": 970, "unit": "nM"},
      {"measurement": "IC50", "setting": "[34]", "result": 410, "unit": "nM"},
      {"measurement": "IC50", "setting": "[35]", "result": "> 10000", "unit": "nM"},
      {"measurement": "IC50", "setting": "[36]", "result": 1850, "unit": "nM"},
      {"measurement": "IC50", "setting": "[37]", "result": "> 10000", "unit": "nM"},
      {"measurement": "IC50", "setting": "[38]", "result": 150, "unit": "nM"},
      {"measurement": "IC50", "setting": "[39]", "result": 250, "unit": "nM"},
      {"measurement": "IC50", "setting": "[40]", "result": 370, "unit": "nM"}
    ]}
  ]
}
